Data set [1] concerns Staphylococcus aureus. It counts as functional. The following applies: ATCC 25923, 24 h.
In a further data set the test system is Bacillus spizizenii. It counts as functional. Conditions: ATCC 6633, 24 h.
Another data set relates to Shigella dysenteriae. In kind it is functional. Conditions: 24 h.
Another data set relates to Salmonella typhi. Kind of data set: microbe, parasite or virus in culture. The following applies: Salmonella enterica, 24 h.
The subject of a further data set is Proteus vulgaris. In kind it is functional. The following applies: ATCC 13315, 24 h.
For data set [2], the system named is Escherichia coli. It counts as functional. The following applies: JM109, 24 h.
A further data set concerns Pseudomonas aeruginosa. It counts as functional. The following applies: ATCC 27853, 24 h.
The next data set deals with Micrococcus luteus. It counts as functional. The following applies: ATCC 4698, 24 h.
Data set [3] deals with Staphylococcus aureus. It counts as functional. Conditions: N315, 24 h.
The subject of data set [4] is Escherichia coli. It counts as functional. Conditions: DH52, 24 h.
Data set [5] in a line: Aqueous solubility of the compound in pH 7.4 phosphate buffer at 1 mg after 3 hrs by UV absorption analysis. In kind it is physicochemical.

SMILES strings stand for the structures. Converted amounts (≈) assume the structure as drawn.

As to `COc1cc(/C=N/n2cnnc2)c2c(c1OCc1ccccc1Cl)CN1CCc3cc4c(cc3C1C2)OCO4` (stereo unspecified), the MIC was 16 µg/mL (≈ 29.4 µM) in the data set on Staphylococcus aureus [1]; 32 µg/mL (≈ 58.8 µM) in the data set with Bacillus spizizenii; 16 µg/mL (≈ 29.4 µM) against Shigella dysenteriae; 1 µg/mL (≈ 1.84 µM) with Salmonella typhi; 512 µg/mL (≈ 941 µM) in the data set on Proteus vulgaris; 4 µg/mL (≈ 7.35 µM) in the data set with Escherichia coli [2]. In addition, the MIC against Pseudomonas aeruginosa stood at 2 µg/mL (≈ 3.68 µM); in the data set with Micrococcus luteus, 256 µg/mL (≈ 471 µM); against Staphylococcus aureus [3], 16 µg/mL (≈ 29.4 µM); against Escherichia coli [4], 64 µg/mL (≈ 118 µM).

Take `CCCCCCCCOc1c(OC)cc(/C=N/n2cnnc2)c2c1CN1CCc3cc4c(cc3C1C2)OCO4` (stereo unspecified): the MIC was determined as 8 µg/mL (≈ 15 µM) with Staphylococcus aureus [1]; 16 µg/mL (≈ 30.1 µM) against Bacillus spizizenii; 64 µg/mL (≈ 120 µM) with Shigella dysenteriae; 16 µg/mL (≈ 30.1 µM) with Salmonella typhi; 16 µg/mL (≈ 30.1 µM) in the data set with Proteus vulgaris; 32 µg/mL (≈ 60.2 µM) against Escherichia coli [2]. The MIC amounted to 512 µg/mL (≈ 963 µM) with Pseudomonas aeruginosa, 16 µg/mL (≈ 30.1 µM) in the data set with Micrococcus luteus, 16 µg/mL (≈ 30.1 µM) against Staphylococcus aureus [3] and 16 µg/mL (≈ 30.1 µM) against Escherichia coli [4].

As to `COc1cc(/C=N/n2cnnc2)c2c(c1OCc1cccc(Cl)c1)CN1CCc3cc4c(cc3C1C2)OCO4` (stereo unspecified), the MIC was found to be 256 µg/mL (≈ 471 µM) in the data set on Staphylococcus aureus [1]; 512 µg/mL (≈ 941 µM) with Bacillus spizizenii; 64 µg/mL (≈ 118 µM) in the data set on Shigella dysenteriae; 256 µg/mL (≈ 471 µM) in the data set with Salmonella typhi; 512 µg/mL (≈ 941 µM) against Proteus vulgaris; 0.5 µg/mL (≈ 0.919 µM) in the data set on Escherichia coli [2]. The MIC was determined as 512 µg/mL (≈ 941 µM) in the data set with Pseudomonas aeruginosa, 512 µg/mL (≈ 941 µM) with Micrococcus luteus, 256 µg/mL (≈ 471 µM) in the data set with Staphylococcus aureus [3] and 512 µg/mL (≈ 941 µM) with Escherichia coli [4].

Regarding `CCOc1c(OC)cc(/C=N/n2cnnc2)c2c1CN1CCc3cc4c(cc3C1C2)OCO4` (stereo unspecified), the MIC in the data set on Staphylococcus aureus [1] stood at 256 µg/mL (≈ 572 µM); against Bacillus spizizenii, 128 µg/mL (≈ 286 µM); in the data set on Shigella dysenteriae it was 512 µg/mL (≈ 1140 µM); with Salmonella typhi, 256 µg/mL (≈ 572 µM); in the data set on Proteus vulgaris it was 32 µg/mL (≈ 71.5 µM); with Escherichia coli [2], 256 µg/mL (≈ 572 µM). Also, the MIC with Pseudomonas aeruginosa is 256 µg/mL (≈ 572 µM); in the data set on Micrococcus luteus, 16 µg/mL (≈ 35.8 µM); in the data set with Staphylococcus aureus [3], 8 µg/mL (≈ 17.9 µM); in the data set on Escherichia coli [4], 512 µg/mL (≈ 1140 µM).

Take `COc1cc(/C=N/n2cnnc2)c2c(c1OCc1ccc(Cl)cc1Cl)CN1CCc3cc4c(cc3C1C2)OCO4` (stereo unspecified): the MIC stood at 16 µg/mL (≈ 27.7 µM) against Staphylococcus aureus [1]; 32 µg/mL (≈ 55.3 µM) against Bacillus spizizenii; 512 µg/mL (≈ 885 µM) against Shigella dysenteriae; 32 µg/mL (≈ 55.3 µM) with Salmonella typhi; 32 µg/mL (≈ 55.3 µM) against Proteus vulgaris; 16 µg/mL (≈ 27.7 µM) in the data set with Escherichia coli [2]. Further, the MIC was determined as 32 µg/mL (≈ 55.3 µM) in the data set with Pseudomonas aeruginosa, 128 µg/mL (≈ 221 µM) in the data set with Micrococcus luteus, 8 µg/mL (≈ 13.8 µM) against Staphylococcus aureus [3] and 256 µg/mL (≈ 443 µM) with Escherichia coli [4].

On to `CCCCOc1c(OC)cc(/C=N/n2cnnc2)c2c1CN1CCc3cc4c(cc3C1C2)OCO4` (stereo unspecified), for which the MIC with Staphylococcus aureus [1] worked out at 16 µg/mL (≈ 33.6 µM); with Bacillus spizizenii, 16 µg/mL (≈ 33.6 µM); against Shigella dysenteriae, 8 µg/mL (≈ 16.8 µM); in the data set on Salmonella typhi, 16 µg/mL (≈ 33.6 µM); in the data set on Proteus vulgaris it was 16 µg/mL (≈ 33.6 µM); against Escherichia coli [2], 16 µg/mL (≈ 33.6 µM). Moreover, the MIC in the data set on Pseudomonas aeruginosa was determined as 16 µg/mL (≈ 33.6 µM); in the data set with Micrococcus luteus, 1 µg/mL (≈ 2.1 µM); with Staphylococcus aureus [3], 8 µg/mL (≈ 16.8 µM); with Escherichia coli [4], 32 µg/mL (≈ 67.3 µM). Besides, the solubility at 3 h in [5] was 121 µg/mL (≈ 254 µM).

With `CCCCCCCCCCOc1c(OC)cc(/C=N/n2cnnc2)c2c1CN1CCc3cc4c(cc3C1C2)OCO4` (stereo unspecified), the MIC against Staphylococcus aureus [1] turned out to be 32 µg/mL (≈ 57.2 µM); in the data set with Bacillus spizizenii, 32 µg/mL (≈ 57.2 µM); against Shigella dysenteriae, 128 µg/mL (≈ 229 µM); against Salmonella typhi, 16 µg/mL (≈ 28.6 µM); with Proteus vulgaris, 64 µg/mL (≈ 114 µM); with Escherichia coli [2], 128 µg/mL (≈ 229 µM). Further, the MIC worked out at 128 µg/mL (≈ 229 µM) against Pseudomonas aeruginosa, 64 µg/mL (≈ 114 µM) with Micrococcus luteus, 32 µg/mL (≈ 57.2 µM) against Staphylococcus aureus [3] and 64 µg/mL (≈ 114 µM) with Escherichia coli [4].

As for `COc1cc(/C=N/n2cnnc2)c2c(c1OCc1ccc([N+](=O)[O-])cc1)CN1CCc3cc4c(cc3C1C2)OCO4` (stereo unspecified), the MIC is 512 µg/mL (≈ 923 µM) with Staphylococcus aureus [1]; 256 µg/mL (≈ 462 µM) with Bacillus spizizenii; 64 µg/mL (≈ 115 µM) against Shigella dysenteriae; 4 µg/mL (≈ 7.21 µM) in the data set with Salmonella typhi; 512 µg/mL (≈ 923 µM) with Proteus vulgaris; 128 µg/mL (≈ 231 µM) in the data set on Escherichia coli [2]. For the same compound, the MIC was 64 µg/mL (≈ 115 µM) against Pseudomonas aeruginosa, 2 µg/mL (≈ 3.61 µM) in the data set with Micrococcus luteus, 16 µg/mL (≈ 28.9 µM) against Staphylococcus aureus [3] and 512 µg/mL (≈ 923 µM) with Escherichia coli [4].

For orientation: solubility means the concentration that dissolves in the medium under given conditions.

Source of the values: ChEMBL document CHEMBL4261494, “Design, synthesis and biological evaluation of novel Schiff base-bridged tetrahydroprotoberberine triazoles as a new type of potential antimicrobial agents” (Medchemcomm, 2017).
